Test results reported in patent US20070167528A1, “Methods of treating hepatocellular carcinoma with denspm” (Genzyme Corporation, priority 2004, published 2007).

Experiments:
[1] = Physical and chemical stability of DENSPM preparations at room temperature; assay type: physicochemical
Procedure: DENSPM may be supplied as a lyophilized powder, for example packaged in 10 mL clear glass vials containing 215 mg. Such a lyophilized powder may be prepared by dissolving DENSPM hydrochloride in sterile WFI to provide a 5% solution. Such solution may be pH adjusted to a pH of preferably between about 5.8 and 6.2, most preferably 6.0, with 2N NaOH. 4.3 ml of this solution is sterile filled into the glass vials thru Millipak (R) 0.45 and 0.22 micron filters and then lyophilized. […] DENSPM is reconstituted with 4.3 mL of water for injection, USP. The resulting solution contains 50 mg/mL of DENSPM and is chemically and physically stable for up to approximately 96 hours at room temperature. When further diluted in 50 mL normal saline, the resulting admixture is chemically and physically stable for up to 24 hours when stored at room temperature. After reconstitution, the drug is normally used within 8 hours because it contains no preservatives.

[2] = Solubility of DENSPM hydrochloride salt in sterile water for injection; assay type: physicochemical; conditions: as its hydrochloride salt
Description: The terms “pharmaceutical composition” and “pharmaceutical preparation” are used interchangeably herein to mean DENSPM in association with a pharmaceutically-acceptable carrier. Excipients and/or adjuvants may optionally be added to the pharmaceutical preparations. DENSPM preparations may be conveniently provided in unit dosage form and may be prepared by methods well-known in the art of pharmacy. Formulations suitable for intravenous administration are preferred. […] Such a solution may be filled into individual dose vials and lyophilized for future reconstitution and administration.

[3] = stated as known effect of DENSPM; cited from earlier work

chemical and physical stability of diluted admixture ([1]; further diluted in 50 mL normal saline, stored at room temperature): up to 24 hours | physical and chemical stability of lyophilized powder ([1]; lyophilized powder from 5% DENSPM hydrochloride solution, pH about 6.0, stored at room temperature): physically and chemically stable | chemical and physical stability of reconstituted solution ([1]; reconstituted with 4.3 mL water for injection, 50 mg/mL, room temperature): ≤ 96 h | solubility [2]: relatively high solubility
Compound: CCNCCCNCCCNCCCNCC [DENSPM, N,N′-Bis[3-(ethylamino)propyl],1,3-propanediamine]
serum creatinine levels [3]: transiently and reversibly elevate serum creatinine levels
